# Measured values taken from patent publication US20100196283A1, “METHOD AND IMAGING MEDIUM FOR USE IN THE METHOD” (priority 2007, published 2010).
# Legend:
# [1] = Liquid state polarisation by liquid state 13C-NMR at 400 MHz; format: physicochemical
# Protocol: In a similar way, the level of polarisation for dissolved hyperpolarised ^13C-lactate may be determined by liquid state NMR measurements. Again the signal intensity of the dissolved hyperpolarised ^13C-lactate is compared with the signal intensity of the dissolved ^13C-lactate before polarisation. The level of polarisation is then calculated from the ratio of the signal intensities of ^13C-lactate before and after polarisation.
# After 60 min dynamic nuclear polarisation, the frozen polarised composition obtained was dissolved in 6 ml phosphate buffer (20 mM, pH 7.4, 100 mg/l EDTA). The pH of the final solution containing the dissolved composition was 7.4±0.1. The sodium ^13C1-L-lactate concentration in said final solution was 60±2 mM.
# Liquid state polarisation was determined by liquid state ^13C-NMR at 400 MHz to be 18-20%.
# After an overnight dynamic nuclear polarisation, the frozen polarised composition obtained was dissolved in 6 ml phosphate buffer (40 mM, pH 7.3, osmolality match to 200 mM with NaCl, 100 mg/l EDTA, 1 eq. NaOH). The pH of the final solution containing the dissolved composition was 7.1. The D-lactate concentration in said final solution was 40 mM.
# (§1) Liquid state polarisation was determined by liquid state ^13C-NMR at 400 MHz to be 14%. The liquid state relaxation (T1 at 9.4 T) was determined to 44 s.
# [2] = Liquid state relaxation (T1 at 9.4 T); format: physicochemical; settings: Example 5b
# Protocol: as §1
# Hep-G2 cells = assay: In vitro 13C-MR spectroscopy in Hep-G2 cells; format: in vitro ADME
# Protocol: An imaging medium was prepared as described in Example 1 and 25 μl of the imaging medium (2.7 mM sodium ^13C1-lactate) was mixed into 10 M Hep-G2 cells. A dynamic set of ^13C-MR spectra was acquired every 5 s with a 15 degree RF pulse. ^13C1-pyruvate was clearly building up over time. The average conversion was 0.3% with a peak conversion (0.4%) approximately 20 s into the experiment.
# mice (heart) = assay: In vivo 13C-MR spectroscopy in mice (heart); parameters: species or system C57Bl/6 mouse; settings: heart surface coil; 200 μl of about 60 mM imaging medium; 9.4 T
# Protocol: 200 μl of an imaging medium which was prepared as described in Example 1 was injected into a C57Bl/6 mouse over a time period of 6 s. The sodium ^13C1-lactate concentration in said imaging medium was about 60 mM and 2 animals were used in the experiment. A surface coil (tuned for proton and carbon) was positioned over the heart of the animal and ^13C-MR spectroscopy was carried out in a 9.4 T magnet. A dynamic set of ^13C-MR spectra (in total 20) was acquired every 5 s with a 30 degree RF pulse. Again a significant amount of metabolism was seen including ^13C1-pyruvate (approximately 2% of the ^13C1-lactate signal), followed by ^13C1-alanine at a later point of time. ^13C1-bicarbonate (approximately 0.5% of the ^13C1-lactate signal) was observable at a similar peak time as ^13C1-pyruvate (FIG. 5).
# mice (whole body) = assay: In vivo 13C-MR spectroscopy in mice (whole body); parameters: species or system C57Bl/6 mouse
# Protocol: 200 μl of an imaging medium which was prepared as described in Example 1 was injected into a C57Bl/6 mouse over a time period of 6 s. The sodium ^13C1-lactate concentration in said imaging medium was 60-90 mM and 3 animals were used in the experiment. A rat size whole body coil (tuned for proton and carbon) was placed over the animal and ^13C-MR spectroscopy was carried out in a 9.4 T magnet. A dynamic set of ^13C-MR spectra (in total 30) was acquired every 3 s with a 15 degree RF pulse. […] The following decay times were calculated from the MR spectra: ^13C1-pyruvate 23 s, ^13C1-alanine 33 s and ^13C1-bicarbonate 24 s.
# mice (liver) = assay: In vivo 13C-MR spectroscopy in mice (liver); parameters: species or system C57Bl/6 mouse; settings: liver surface coil; 200 μl of about 60 mM imaging medium; 9.4 T
# Protocol: 200 μl of an imaging medium which was prepared as described in Example 1 was injected into a C57Bl/6 mouse over a time period of 6 s. The sodium ^13C1-lactate concentration in said imaging medium was about 60 mM. A surface coil (tuned for proton and carbon) was positioned over the liver of the animal and ^13C-MR spectroscopy was carried out in a 9.4 T magnet. A dynamic set of ^13C-MR spectra (in total 20) was acquired every 5 s with a 30 degree RF pulse. Again a significant amount of metabolism was seen including ^13C1-pyruvate (approximately 3% of the ^13C1-lactate signal), followed by ^13C1-alanine (approximately 3.5% of the ^13C1-lactate signal) at a later point of time (FIG. 3).
# [3] = Solid state polarisation by solid state 13C-NMR after DNP; format: physicochemical
# Description: The level of polarisation may for instance be determined by solid state ^13C-NMR measurements in solid hyperpolarised ^13C-lactate, e.g. solid hyperpolarised ^13C-lactate obtained by dynamic nuclear polarisation (DNP) of ^13C-lactate. The solid state ^13C-NMR measurement preferably consists of a simple pulse-acquire NMR sequence using a low flip angle. The signal intensity of the hyperpolarised ^13C-lactate in the NMR spectrum is compared with signal intensity of ^13C-lactate in a NMR spectrum acquired before the polarisation process. The level of polarisation is then calculated from the ratio of the signal intensities before and after polarisation.
# The probe is inserted into the probe-retaining container, submerged in the liquid helium and irradiated with microwaves. The microwave frequency may be determined from the EPR line of the DNP agent, which depends on the magnetic field of the magnet as 28.0 GHz/T. The optimal microwave frequency may be determined by adjusting the frequency for maximal NMR signal. Preferably, the optimal microwave frequency is in the about 94 GHz for a magnet charged to 3.35 T, 110 GHz for a magnet charged to 4 T, 140 GHz for a magnet charged to 5 T and 200 GHz for a magnet charged to 7 T. The power may be chosen between 50 and 200 mW, dependent on the probe size. The level of polarisation may be monitored as earlier described by for instance acquiring solid state ^13C-NMR signals of the probe during microwave irradiation. Generally, a saturation curve is obtained in a graph showing NMR signal vs. time. […] A solid state ^13C-NMR measurement suitably consists of a simple pulse-acquire NMR sequence using a low flip angle. […] The polarisation is then calculated from the ratio of the signal intensities before and after DNP.
# To a micro test tube was added sodium ^13C1-L-lactate solution (78.5 mg, Aldrich, 50% w/w sodium ^13C1-lactate). […] Polarisation was followed by solid state ^13C-NMR and the solid state polarisation was determined to be 20%.
# [4] = T1 relaxation in human full blood at 37° C.; format: physicochemical
# Description: The isotopic enrichment of the hyperpolarised ^13C-lactate used in the method of the invention is preferably at least 75%, more preferably at least 80% and especially preferably at least 90%, an isotopic enrichment of over 90% being most preferred. Ideally, the enrichment is 100%. ^13C-lactate used in the method of the invention may be isotopically enriched at the C1-position (in the following denoted ^13C1-lactate), at the C2-position (in the following denoted ^13C2-lactate), at the C3-position (in the following denoted ^13C3-lactate), at the C1- and the C2-position (in the following denoted ^13C1,2-lactate), at the C1- and the C3-position (in the following denoted ^13C1,3-lactate), at the C2- and the C3-position (in the following denoted ^13C2,3-lactate) or at the C1-, C2- and C3-position (in the following denoted ^13C1,2,3-lactate). Isotopic enrichment at the C1-position is the most preferred since ^13C1-lactate has a higher, i.e. longer T1 relaxation in human full blood at 37° C. than ^13C-lactate which is isotopically enriched at other C-positions.
# [5] = 200 μl of 60-90 mM imaging medium injected over 6 s, 9.4 T
smiles,measurement,setting,value
C[C@@H](O)C(=O)O [D-lactate],liquid state polarisation,"[1]; Example 5b, overnight DNP of D-lactic acid, dissolved in phosphate buffer with 1 eq. NaOH, 13C-NMR at 400 MHz",14%
same,liquid state relaxation (T1),[2],44 s
C[C@H](O)[13C](=O)[O-].[Na+] [sodium ^13C1-L-lactate],peak conversion to 13C1-pyruvate,Hep-G2 cells; 25 μl imaging medium (2.7 mM sodium 13C1-lactate) mixed into 10 M Hep-G2 cells,0.4%
same,average conversion to 13C1-pyruvate,"Hep-G2 cells; 25 μl imaging medium (2.7 mM sodium 13C1-lactate) mixed into 10 M Hep-G2 cells, spectra every 5 s",0.3%
same,time of peak conversion to 13C1-pyruvate,"Hep-G2 cells; Hep-G2 cells, time into the experiment",approximately 20 s
same,13C1-bicarbonate signal as % of the 13C1-lactate signal,mice (heart),approximately 0.5%
same,13C1-pyruvate signal as % of the 13C1-lactate signal,mice (heart),approximately 2%
same,liquid state polarisation,"[1]; Example 1b, after 60 min DNP, dissolved in 6 ml phosphate buffer pH 7.4, 13C-NMR at 400 MHz",18-20%
same,liquid state polarisation,"[1]; Example 2, water/glycerol mixture (75:25), dissolved as in Example 1b",15-20%
same,liquid state polarisation,"[1]; Example 3, water/glycerol mixture (50:50), dissolved as in Example 1b",25%
same,13C1-alanine signal as % of the 13C1-lactate signal,mice (whole body); [5],approximately 1.5%
same,13C1-bicarbonate signal as % of the 13C1-lactate signal,mice (whole body); [5],approximately 0.5%
same,13C1-pyruvate signal as % of the 13C1-lactate signal,mice (whole body); [5],approximately 2%
same,decay time of 13C1-alanine signal,mice (whole body); calculated from the MR spectra,33 s
same,decay time of 13C1-bicarbonate signal,mice (whole body); calculated from the MR spectra,24 s
same,decay time of 13C1-pyruvate signal,mice (whole body); calculated from the MR spectra,23 s
same,13C1-alanine signal as % of the 13C1-lactate signal,mice (liver),approximately 3.5%
same,13C1-bicarbonate levels observed,mice (liver),very low levels
same,13C1-pyruvate signal as % of the 13C1-lactate signal,mice (liver),approximately 3%
same,solid state polarisation,"[3]; Example 1a, aqueous trityl radical and Gd-chelate solutions, DNP at 1.2 K, 3.35 T, 94 GHz",20%
same,solid state polarisation,"[3]; Example 2, water/glycerol mixture (75:25) for trityl and Gd-chelate solutions",17-20%
same,solid state polarisation,"[3]; Example 3, water/glycerol mixture (50:50) for trityl and Gd-chelate solutions",25%
C[C@H](O)[13C](=O)O [^13C1-lactate],T1 relaxation versus 13C-lactate enriched at other C-positions,[4],longer
